In US20250340574A1, “MODULATORS OF CYSTIC FIBROSIS TRANSMEMBRANE CONDUCTANCE REGULATOR” (Vertex Pharmaceuticals Incorporated, priority 2022, published 2025):

Experiments:
[1] = target: T1, CFTR (F508del/MF-HBE cells) (Homo sapiens, UniProt P13569, DEL508-508); experiment: Ussing chamber assay of CFTR-mediated short-circuit currents, Assay C (0.026 μM to 25 μM, 6 concentrations); assay type: cell-based; conditions: with 33 nM potentiator and 18 μM Tezacaftor, 20% human serum; for Emax: 18-24 hours, read-out: C Max activity (%)
T1 construct: human bronchial epithelial (HBE) cells derived from CF subjects heterozygous for F508del and a minimal function CFTR mutation (F508del/MF-HBE); endogenous in cells; host or cells: Primary human bronchial epithelial cells from CF subjects (F508del/MF genotype), differentiated at an air-liquid interface
Summary of the method: (§1)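 F508del/MF-HBE cells were preincubated 18–24 h at 37 °C in 20% human serum with corrector plus 18 μM tezacaftor and either 33 nM (concentration series) or 44 nM (1 μM single point) of the aminotrifluoromethyl triazatricyclic potentiator. Ussing chamber, Vhold=0 mV, 37 °C; forskolin 20 μM stimulation, CFTR ISC taken as inhibitor-cocktail-sensitive current.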

[2] = target: T1, CFTR (F508del/MF-HBE cells); experiment: Ussing chamber assay of CFTR-mediated short-circuit currents, Assay D (single concentration of 1 μM); assay type: cell-based; conditions: with 44 nM potentiator and 18 μM Tezacaftor, 20% human serum; for D activity at 1 μM (%): 18-24 hours
Summary of the method: as §1

T1 sequence (P13569 with tags, fused parts or gaps DEL508-508): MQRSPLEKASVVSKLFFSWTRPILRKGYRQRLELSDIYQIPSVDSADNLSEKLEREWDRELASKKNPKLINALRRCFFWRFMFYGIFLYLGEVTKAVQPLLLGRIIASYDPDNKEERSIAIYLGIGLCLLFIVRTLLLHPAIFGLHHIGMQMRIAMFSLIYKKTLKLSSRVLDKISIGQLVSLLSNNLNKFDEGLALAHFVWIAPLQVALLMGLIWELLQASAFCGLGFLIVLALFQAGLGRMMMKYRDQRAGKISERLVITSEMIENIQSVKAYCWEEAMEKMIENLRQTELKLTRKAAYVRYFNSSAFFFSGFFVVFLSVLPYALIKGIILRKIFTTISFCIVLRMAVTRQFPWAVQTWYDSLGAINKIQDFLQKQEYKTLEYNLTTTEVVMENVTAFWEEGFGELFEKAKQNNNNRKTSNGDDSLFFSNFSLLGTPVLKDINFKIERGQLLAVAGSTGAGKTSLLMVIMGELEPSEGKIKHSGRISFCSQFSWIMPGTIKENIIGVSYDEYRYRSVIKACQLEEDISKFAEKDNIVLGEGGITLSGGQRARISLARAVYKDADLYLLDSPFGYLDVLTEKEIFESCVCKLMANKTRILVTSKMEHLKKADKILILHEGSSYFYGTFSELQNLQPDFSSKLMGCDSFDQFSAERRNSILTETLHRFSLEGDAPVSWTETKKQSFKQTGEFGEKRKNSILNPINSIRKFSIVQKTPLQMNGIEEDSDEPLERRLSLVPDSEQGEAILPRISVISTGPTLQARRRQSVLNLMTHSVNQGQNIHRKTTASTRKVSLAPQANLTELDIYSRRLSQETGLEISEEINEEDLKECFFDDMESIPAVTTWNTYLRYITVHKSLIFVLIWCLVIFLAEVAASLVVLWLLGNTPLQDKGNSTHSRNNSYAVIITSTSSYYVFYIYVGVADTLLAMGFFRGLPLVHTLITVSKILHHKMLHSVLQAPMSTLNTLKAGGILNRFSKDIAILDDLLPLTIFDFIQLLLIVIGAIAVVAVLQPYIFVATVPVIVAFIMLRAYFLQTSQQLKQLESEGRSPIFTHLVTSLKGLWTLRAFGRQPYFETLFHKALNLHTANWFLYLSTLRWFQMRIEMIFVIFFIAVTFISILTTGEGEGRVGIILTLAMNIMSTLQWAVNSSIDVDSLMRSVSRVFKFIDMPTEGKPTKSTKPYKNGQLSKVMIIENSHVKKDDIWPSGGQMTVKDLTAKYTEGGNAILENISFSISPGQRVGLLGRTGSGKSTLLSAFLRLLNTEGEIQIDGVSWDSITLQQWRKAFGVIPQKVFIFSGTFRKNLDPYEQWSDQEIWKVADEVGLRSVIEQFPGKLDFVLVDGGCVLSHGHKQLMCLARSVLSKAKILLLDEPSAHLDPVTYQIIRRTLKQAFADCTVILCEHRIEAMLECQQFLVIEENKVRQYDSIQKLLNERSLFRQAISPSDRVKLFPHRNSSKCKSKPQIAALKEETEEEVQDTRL

Emax [1] [%] | EC50 [1] [µM] | D activity at 1 μM (%) [2] | D act. at 1 μM (%) [2] | Structure (SMILES)
> 60 | < 1 | +++ (+++ is >60%) | – | Cc1cccc(CC(C)C)c1-c1nc2nc(c1C)OC[C@@H](CC(C)(C)C)N(Cc1cnc3oc(C4CC4)cc3n1)C(=O)c1cccc(c1)S(=O)(=O)N2 (atropisomer, axis not shown) [Compound I-137]
> 60 | < 1 | +++ (+++ is >60%) | – | Cc1cccc(C2CC2)c1-c1nc2nc(c1C)OC[C@@H](CC(C)(C)C)N(Cc1cnc3oc(C4CC4)cc3n1)C(=O)c1cccc(c1)S(=O)(=O)N2 (atropisomer, axis not shown) [Compound I-152]
> 60 | < 1 | +++ (+++ is >60%) | – | Cc1cccc(CC(C)C)c1-c1nc2nc(c1C)OC[C@@H](CC(C)(C)C)N(Cc1cnc3nc(C4CC4)n(C)c3n1)C(=O)c1cccc(c1)S(=O)(=O)N2 (atropisomer, axis not shown) [Compound I-170]
> 60 | < 1 | +++ (+++ is >60%) | – | Cc1cccc(CC(C)C)c1-c1nc2nc(c1C)OC[C@@H](CC(C)(C)C)N(Cc1cnc3nc(C(C)C)n(C)c3n1)C(=O)c1cccc(c1)S(=O)(=O)N2 (atropisomer, axis not shown) [Compound I-171]
> 60 | < 1 | +++ (+++ is >60%) | – | Cc1cccc(CC2CCCC2)c1-c1nc2nc(c1C)OC[C@@H](CC(C)(C)C)N(Cc1cnc3oc(C4CC4)cc3n1)C(=O)c1cccc(c1)S(=O)(=O)N2 (atropisomer, axis not shown) [Compound I-195]
> 60 | < 1 | +++ (+++ is >60%) | – | Cc1cccc(CCC(C)C)c1-c1nc2nc(c1C)OC[C@@H](CC(C)(C)C)N(Cc1cnc3oc(C4CC4)cc3n1)C(=O)c1cccc(c1)S(=O)(=O)N2 (atropisomer, axis not shown) [Compound I-204]
> 60 | < 1 | +++ (+++ is >60%) | – | Cc1cccc(CC(C)C)c1-c1nc2nc(c1C)OC[C@@H](COC(C)C)N(Cc1cnc3cc(C(C)C)n(C)c3n1)C(=O)c1cccc(c1)S(=O)(=O)N2 (atropisomer, axis not shown) [Compound I-211]
– | – | – | +++ (+++ is >60%) | COCc1cc2nc(CN3C(=O)c4cccc(c4)S(=O)(=O)Nc4nc(cc(-c5c(C)cccc5C)n4)OC[C@H]3CC3(C)CC3)cnc2o1 [IV-16, (11R)-6-(2,6-dimethylphenyl)-12-[[6-(methoxymethyl)furo[2,3-b]pyrazin-2-yl]methyl]-11-[(1-methylcyclopropyl)methyl]-2,2-dioxo-9-oxa-2λ^6-thia-3,5,12,19-tetrazatricyclo[12.3.1.14,8]nonadeca-1(18),4(19),5,7,14,16-hexaen-13-one]
– | – | – | +++ (+++ is >60%) | CC(C)=Cc1cc2nc(CN3C(=O)c4cccc(c4)S(=O)(=O)Nc4nc(cc(-c5c(C)cccc5C)n4)OC[C@H]3CC3(C)CC3)cnc2o1 [IV-17, (11R)-6-(2,6-dimethylphenyl)-11-[(1-methylcyclopropyl)methyl]-12-[[6-(2-methylprop-1-enyl)furo[2,3-b]pyrazin-2-yl]methyl]-2,2-dioxo-9-oxa-2λ^6-thia-3,5,12,19-tetrazatricyclo[12.3.1.14,8]nonadeca-1(18),4(19),5,7,14,16-hexaen-13-one]
– | – | – | +++ (+++ is >60%) | Cc1cccc(C)c1-c1cc2nc(n1)NS(=O)(=O)c1cccc(c1)C(=O)N(Cc1cnc3oc(C#N)cc3n1)[C@H](CC1(C)CC1)CO2 [IV-28]
– | – | – | +++ (+++ is >60%) | Cc1cccc(C)c1-c1cc2nc(n1)NS(=O)(=O)c1cccc(c1)C(=O)N(Cc1ncc3cc(C4CC4)n(C)c3n1)[C@H](COC(C)C)CO2 [IV-29]
– | – | – | +++ (+++ is >60%) | Cc1cccc(C)c1-c1cc2nc(n1)NS(=O)(=O)c1cccc(c1)C(=O)N(Cc1cnc3sc(C4CC4)cc3n1)[C@H](CC1(C)CC1)CO2 [IV-41]
